One data set addresses cdk2/cyclinE (Homo sapiens, UniProt P24941). Kind of data set: Cyclin dependent kinase 2 assay (cdk2/cyclinE), 32P incorporation, filter plate. As to conditions: retinoblastoma substrate, 12 mM ATP, 25° C., 15 minutes; read-out: Inhibition of Cdks: IC50 Cdk2/E. It is filed as biochemical. The protocol: (§1) Cyclin Dependent Kinase 1 and 2 Assays (cdk1/cyclinB, cdk2/cyclinA, cdk2/cyclinE)
(§2) Enzyme assays for IC50 determinations and kinetic evaluation are performed in a 96-well filter plate (Millipore MADVN6550) in a total volume of 0.1 mL of 20 mM TRIS (tris[hydroxymethyl]aminomethane), at pH 7.4, 50 mM NaCl, 1 mM dithiothreitol, 10 mM MgCl2, […] containing 0.25 μCi of [^32P]ATP, 20 ng of enzyme (either cdk1/B, cdk2/A, or cdk2E), 1 μg retinoblastoma and appropriate dilutions of the particular invention compound. All components except the ATP are added to the wells, and the plate is placed on a plate mixer for 2 minutes. The reaction is begun by addition of [^32P]ATP, and the plate is incubated at 25° C. for 15 minutes. The reaction is terminated by addition of 0.1 mL of 20% TCA. The plate is kept at 4° C. for at least 1 hour to allow the substrate to precipitate. The wells are then washed 5 times with 0.2 mL of 10% TCA and ^32P incorporation determined with a beta plate counter (Wallac Inc., Gaithersburg, Md.).

The target of the next data set is cdk1/cyclinB (Homo sapiens, UniProt P06493). Kind of data set: Cyclin dependent kinase 1 assay (cdk1/cyclinB), 32P incorporation, filter plate. It is filed as biochemical. The note with it: retinoblastoma substrate, 12 mM ATP, 25° C., 15 minutes; read-out: Inhibition of Cdks: IC50 Cdk1/B. How it is done: as §1, §2
Sequence of cdk1/cyclinB (P06493 whole entry, species assumed): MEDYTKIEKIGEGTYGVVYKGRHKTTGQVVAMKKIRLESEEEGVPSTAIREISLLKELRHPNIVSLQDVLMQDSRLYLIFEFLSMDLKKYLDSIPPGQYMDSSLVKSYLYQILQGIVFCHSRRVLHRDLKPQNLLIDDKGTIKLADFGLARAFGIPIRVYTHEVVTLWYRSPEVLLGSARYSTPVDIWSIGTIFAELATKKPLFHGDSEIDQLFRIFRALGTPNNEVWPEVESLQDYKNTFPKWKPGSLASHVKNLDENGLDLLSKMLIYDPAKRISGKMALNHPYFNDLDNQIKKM
Sequence of cdk1/cyclinB (P14635 whole entry partner, species assumed): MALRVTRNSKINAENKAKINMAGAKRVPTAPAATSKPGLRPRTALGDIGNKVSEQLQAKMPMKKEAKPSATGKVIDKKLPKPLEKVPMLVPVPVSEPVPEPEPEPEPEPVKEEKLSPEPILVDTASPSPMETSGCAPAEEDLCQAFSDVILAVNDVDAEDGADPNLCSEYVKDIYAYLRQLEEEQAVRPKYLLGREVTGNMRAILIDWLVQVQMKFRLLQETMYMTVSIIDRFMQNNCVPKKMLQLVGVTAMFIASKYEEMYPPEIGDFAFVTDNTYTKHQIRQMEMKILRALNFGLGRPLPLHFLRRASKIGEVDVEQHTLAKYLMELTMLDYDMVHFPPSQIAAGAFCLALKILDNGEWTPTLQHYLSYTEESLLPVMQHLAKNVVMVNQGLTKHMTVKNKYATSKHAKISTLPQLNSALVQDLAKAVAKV
The next data set has as its target cdk2/cyclinA (Homo sapiens, UniProt P24941). Nature of the data set: Cyclin dependent kinase 2 assay (cdk2/cyclinA), 32P incorporation, filter plate. It is filed as biochemical. As to conditions: retinoblastoma substrate, 12 mM ATP, 25° C., 15 minutes; read-out: Inhibition of Cdks: IC50 Cdk2/A. How it is done:
as §1, §2

Another data set addresses cdk4/cyclinD (Homo sapiens, UniProt P11802). Nature of the data set: Cyclin Dependent Kinase 4 (cdk-4) Assay, 32P incorporation, filter plate. It is filed as biochemical. As to conditions: retinoblastoma substrate, 25 μM ATP, 25° C., 15 minutes; read-out: Inhibition of Cdks: IC50 Cdk4D. How it is done: Cyclin Dependent Kinase 4 (cdk-4) Assay
Enzyme assays for IC50 determinations and kinetic evaluation are performed in 96-well filter plates (Millipore MADVN6550). The total volume is 0.1 mL containing a final concentration of 20 mM TRIS (tris[hydroxymethyl]aminomethane), at pH 7.4, 50 mM NaCl, 1 mM dithiothreitol, 10 mM MgCl2, 25 μM ATP containing 0.25 μCi of [^32P]ATP, 20 ng of cdk4, 1 μg of retinoblastoma, and appropriate dilutions of a compound of the present invention. All components except the ATP are added to the wells, and the plate is placed on a plate mixer for 2 minutes. The reaction is started by adding [^32P]ATP, and the plate is incubated at 25° C. for 15 minutes. The reaction is terminated by addition of 0.1 mL of 20% trichloroacetic acid (TCA). The plate is kept at 4° C. for at least 1 hour to allow the substrate to precipitate. The wells are then washed 5 times with 0.2 mL of 10% TCA and ^32P incorporation is determined with a beta plate counter (Wallac Inc., Gaithersburg, Md.).

Where a name gives a salt, the structure may show the parent alone.

Sequence of cdk4/cyclinD (P11802 whole entry, species assumed): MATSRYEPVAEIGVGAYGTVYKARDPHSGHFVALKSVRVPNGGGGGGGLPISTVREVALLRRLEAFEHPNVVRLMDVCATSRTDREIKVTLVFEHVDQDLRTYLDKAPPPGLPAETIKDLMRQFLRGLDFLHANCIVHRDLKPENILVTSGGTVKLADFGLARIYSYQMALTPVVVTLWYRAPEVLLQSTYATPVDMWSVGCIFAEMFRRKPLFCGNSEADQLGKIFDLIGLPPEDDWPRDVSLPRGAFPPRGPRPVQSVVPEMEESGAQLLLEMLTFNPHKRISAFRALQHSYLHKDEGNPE
Sequence of cdk4/cyclinD (P24385 whole entry partner, species assumed): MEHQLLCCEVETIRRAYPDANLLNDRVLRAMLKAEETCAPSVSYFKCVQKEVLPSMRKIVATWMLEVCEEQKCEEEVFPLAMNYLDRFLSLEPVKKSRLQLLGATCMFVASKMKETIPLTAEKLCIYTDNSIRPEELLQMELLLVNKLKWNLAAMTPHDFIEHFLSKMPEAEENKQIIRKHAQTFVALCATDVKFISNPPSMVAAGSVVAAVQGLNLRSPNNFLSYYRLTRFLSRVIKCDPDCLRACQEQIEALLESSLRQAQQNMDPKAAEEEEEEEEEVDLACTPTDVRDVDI

`O=C(Nc1ccc2cnc(Nc3ccc(N4CCNCC4)cc3)nc2n1)NC1CCCC1` (as salt: salt) [Compound 51, 1-Cyclopentyl-3-[2-(4-piperazin-1-yl-phenylamino)-pyrido[2,3-d]pyrimidin-7-yl]-urea]: the melting point (commonly the temperature, or range, at which the solid turns liquid) was 210 to 213 °C (dec.).
For `CCN(C(=O)NC(C)(C)C)c1ccc2cnc(Nc3ccc(N4C[C@@H](C)N[C@@H](C)C4)cc3)nc2n1` [Compound 108, 3-tert-Butyl-1-{2-[4(cis-3,5-dimethyl-piperazin-1-yl)-phenylamino]-pyrido[2,3-d]pyrimidin-7-yl}-1-ethyl-urea], the IC50 is 3.05 µM at cdk2/cyclinE, 2.42 µM on cdk1/cyclinB, 2.03 µM at cdk2/cyclinA and 0.067 µM on cdk4/cyclinD.
On to `CC(C)(C)NC(=O)Nc1nc2nc(Nc3ccc(N4CCNCC4)cc3)ncc2cc1Br` [Compound 91, 1-[6-Bromo-2-(4-piperazin-1-yl-phenylamino)-pyrido[2,3-d]pyrimidin-7-yl]-3-tert-butyl-urea], for which the IC50 was more than 5 µM at cdk2/cyclinE, more than 5 µM on cdk1/cyclinB, more than 5 µM on cdk2/cyclinA and 0.07 µM on cdk4/cyclinD.
For the compound `C[C@@H]1CN(c2ccc(Nc3ncc4cc(Br)c(NC(=O)NC5CCCCC5)nc4n3)cc2)C[C@H](C)N1` (as salt: salt) [Compound 95, 1-{6-Bromo-2-[4-(cis-3,5-dimethyl-piperazin-1-yl)-phenylamino]-pyrido[2,3-d]pyrimidin-7-yl}-3-cyclohexyl-urea], the melting point is 198 °C (dec.).
With `Cc1cc2cnc(Nc3ccc(N4C[C@@H](C)N[C@@H](C)C4)cc3)nc2nc1NC(=O)NC1CCCCC1` [Compound 116, 1-Cyclohexyl-3-{2-[4-(cis-3,5-dimethyl-piperazin-1-yl)-phenylamino]-6-methyl-pyrido[2,3-d]pyrimidin-7-yl}-urea], the IC50 at cdk2/cyclinE is 3.75 µM; at cdk1/cyclinB, more than 5 µM; on cdk2/cyclinA it was more than 5 µM; at cdk4/cyclinD it was 0.313 µM.
`C[C@@H]1CN(c2ccc(Nc3ncc4cc(Br)c(NC(=O)NC(C)(C)C)nc4n3)cc2)C[C@H](C)N1` [Compound 94, 1-{6-Bromo-2-[4-(cis-3,5-dimethyl-piperazin-1-yl)-phenylamino]-pyrido[2,3-d]pyrimidin-7-yl}-3-tert-butyl-urea]: the figures for the IC50 at cdk2/cyclinE and on cdk4/cyclinD were more than 5 µM and 0.101 µM, respectively.
For `CCc1cc2cnc(Nc3ccc(N4C[C@@H](C)N[C@@H](C)C4)cc3)nc2nc1NC(=O)NC(C)(C)C` [Compound 121, 1-tert-Butyl-3-{2-[4-(cis-3,5-dimethyl-piperazin-1-yl)-phenylamino]-6-ethyl-pyrido[2,3-d]pyrimidin-7-yl}-urea], the IC50 was more than 5 µM on cdk2/cyclinE, more than 5 µM on cdk1/cyclinB, more than 5 µM on cdk2/cyclinA and 0.092 µM at cdk4/cyclinD.
Turning to `Cc1cc2cnc(Nc3ccc(N4CCNCC4)cc3)nc2nc1NC(=O)NC(C)(C)C` [Compound 118], the IC50 was 3.8 µM at cdk2/cyclinE, more than 5 µM at cdk1/cyclinB, more than 5 µM at cdk2/cyclinA and 0.079 µM at cdk4/cyclinD.
In the case of `CCOC(=O)c1cc2cnc(Nc3ccc(N4CCNCC4)cc3)nc2nc1NC(=O)NC(C)(C)C` [Compound 113, 7-(3-tert-Butyl-ureido)-2-(4-piperazin-1-yl-phenylamino)-pyrido[2,3-d]pyrimidine-6-carboxylic acid ethyl ester], the IC50 at cdk2/cyclinE is more than 5 µM; on cdk1/cyclinB, more than 5 µM; at cdk2/cyclinA, more than 5 µM; at cdk4/cyclinD it was 3 µM.
Take `CC1(C)CN(c2ccc(Nc3ncc4cc(F)c(NC(=O)NC5CCCCC5)nc4n3)cc2)CCN1` [Compound 100, 1-Cyclohexyl-3-{2-[4-(3,3-dimethyl-piperazin-1-yl)-phenylamino]-6-fluoro-pyrido[2,3-d]pyrimidin-7-yl}-urea]: the IC50 at cdk2/cyclinE is 0.415 µM; at cdk1/cyclinB, 0.265 µM; on cdk2/cyclinA, 0.153 µM; at cdk4/cyclinD it was 0.035 µM.
In the case of `C[C@@H]1CN(c2ccc(Nc3ncc4cc(Br)c(NC(=O)NC5CCCCC5)nc4n3)cc2)C[C@H](C)N1` [Compound 95, 1-{6-Bromo-2-[4-(cis-3,5-dimethyl-piperazin-1-yl)-phenylamino]-pyrido[2,3-d]pyrimidin-7-yl}-3-cyclohexyl-urea], the IC50 at cdk2/cyclinE is more than 5 µM; at cdk4/cyclinD, 0.31 µM.
For the compound `O=C(Nc1ccc2cnc(Nc3ccc(N4CCNCC4)cc3)nc2n1)NC1CCCC1` [Compound 51, 1-Cyclopentyl-3-[2-(4-piperazin-1-yl-phenylamino)-pyrido[2,3-d]pyrimidin-7-yl]-urea], the IC50 at cdk2/cyclinE turned out to be 0.03 µM; on cdk1/cyclinB, 0.053 µM; at cdk2/cyclinA, 0.024 µM; on cdk4/cyclinD it was 0.004 µM.
For the compound `CC(C)NC(=O)Nc1ccc2cnc(Nc3ccc(N4CCNCC4)cc3)nc2n1` (as salt: salt) [Compound 48, 1-Isopropyl-3-[2-(4-piperazin-1-yl-phenylamino)-pyrido[2,3-d]pyrimidin-7-yl]-urea], the melting point was 190 °C (dec.).
Take `O=C(Nc1ccc2cnc(Nc3ccc(N4CCNCC4)cc3)nc2n1)NC1CCCCC1` (as salt: salt) [Compound 9, 1-Cyclohexyl-3-[2-(4-piperazin-1-yl-phenylamino)-pyrido[2,3-d]pyrimidin-7-yl]-urea]: the melting point is 200 °C (dec.).
In the case of `CC1(C)CN(c2ccc(Nc3ncc4ccc(NC(=O)NC5CCCCC5)nc4n3)cc2)CCN1` [Compound 115, 1-Cyclohexyl-3-{2-[4-(3,3-dimethyl-piperazin-1-yl)-phenylamino]-pyrido[2,3-d]pyrimidin-7-yl}-urea], the IC50 worked out at 0.051 µM at cdk2/cyclinE, 0.094 µM at cdk1/cyclinB, 0.022 µM at cdk2/cyclinA and 0.007 µM at cdk4/cyclinD.
With `CC(C)NC(=O)Nc1ccc2cnc(Nc3ccc(N4CCNCC4)cc3)nc2n1` [Compound 48, 1-Isopropyl-3-[2-(4-piperazin-1-yl-phenylamino)-pyrido[2,3-d]pyrimidin-7-yl]-urea], the IC50 came out at 0.098 µM at cdk2/cyclinE, 0.257 µM at cdk1/cyclinB, 0.113 µM at cdk2/cyclinA and 0.018 µM at cdk4/cyclinD.
As for `Cc1cc2cnc(Nc3ccc(N4C[C@@H](C)N[C@@H](C)C4)cc3)nc2nc1NC(=O)NC(C)C` [Compound 119, 1-{2-[4-(cis-3,5-Dimethyl-piperazin-1-yl)-phenylamino]-6-methyl-pyrido[2,3-d]pyrimidin-7-yl}-3-isopropyl-urea], the IC50 on cdk2/cyclinE was more than 5 µM; at cdk1/cyclinB, more than 5 µM; at cdk2/cyclinA, more than 5 µM; on cdk4/cyclinD it was 1.6 µM.
In the case of `C[C@@H]1CN(c2ccc(Nc3ncc4cc(F)c(NC(=O)NC(C)(C)C)nc4n3)cc2)C[C@H](C)N1` [Compound 102, 1-tert-Butyl-3-{2-[4(cis-3,5-dimethyl-piperazin-1-yl)-phenylamino]-6-fluoro-pyrido[2,3-d]pyrimidin-7-yl}-urea], the IC50 was found to be 4.5 µM on cdk2/cyclinE, 3.13 µM on cdk1/cyclinB, 3.59 µM on cdk2/cyclinA and 0.165 µM on cdk4/cyclinD.
Consider `CNC(=O)Nc1nc2nc(Nc3ccc(N4CCNCC4)cc3)ncc2cc1Br` [Compound 93, 1-[6-Bromo-2-(4-piperazin-1-yl-phenylamino)-pyrido[2,3-d]pyrimidin-7-yl]-3-methyl-urea], for which the IC50 on cdk2/cyclinE, at cdk1/cyclinB, at cdk2/cyclinA and at cdk4/cyclinD was more than 5 µM throughout.
Take `Cc1cc2cnc(Nc3ccc(N4C[C@@H](C)N[C@@H](C)C4)cc3)nc2nc1NC(=O)NC1CC1` [Compound 120, 1-Cyclopropyl-3-{2-[4-(cis-3,5-dimethyl-piperazin-1-yl)-phenylamino]-6-methyl-pyrido[2,3-d]pyrimidin-7-yl}-urea]: the IC50 at cdk2/cyclinE is more than 5 µM; at cdk1/cyclinB, more than 5 µM; at cdk2/cyclinA, more than 5 µM; at cdk4/cyclinD, 1.9 µM.
`CCN(C(=O)NC1CCCCC1)c1ccc2cnc(Nc3ccc(N4CCNCC4)cc3)nc2n1` [Compound 107, 3-Cyclohexyl-1-ethyl-1-[2-(4-piperazin-1-yl-phenylamino)-pyrido[2,3-d]pyrimidin-7-yl]-urea]: the IC50 at cdk2/cyclinE came out at 1.65 µM; at cdk1/cyclinB, 1.73 µM; on cdk2/cyclinA, 1.95 µM; at cdk4/cyclinD, 0.019 µM.
